Earlier results on two compounds are cited in US7452892B2, “Triazolopyrimidine cannabinoid receptor 1 antagonists” (Bristol-Myers Squibb Company, priority 2005, dated 2008).

For data set [1] the following is noted: chronic administration for two weeks.
The conditions of data set [2]: 16 week trial period.

In the case of `Cc1c(C(=O)NN2CCCCC2)nn(-c2ccc(Cl)cc2Cl)c1-c1ccc(I)cc1` [AM-251], the body weight result in data set [1] is “substantial body weight reduction”.

Regarding `Cc1c(C(=O)NN2CCCCC2)nn(-c2ccc(Cl)cc2Cl)c1-c1ccc(Cl)cc1` [SR-141716], the “body weight in human subjects” value in data set [2] is listed as “dose-dependently reduced body weight”.
